Test results taken from patent US20040097408A1, “Compounds regulating cell proliferation and differentiation” (priority 2001, published 2004).
Several values for one entry are separate records, joined by “and”; a condition that tells them apart may be missing. Identical values can stand only once.

Tests used:
[1] = system: BT474; test: cell count proliferation assay; format: cell-based; set-up: key: +: A positive scoring in these Tables represent cells in which a 2-5 and a 10-40 fold reduction in the total number of cells relative to the control untreated cells was observed after 3 and 7 days of culture with F16, respectively; settings: BT474, human breast; F16 3 μM, cells counted after 3 and 7 days
[2] = system: AC816; test: cell cycle phases by BrdU incorporation / FACS; format: cell-based, mouse; settings: F16 3 μM, 30 hr
Experimental: (§1) The percentage of cells in the different phases of the cell cycle was assessed by measuring BrdU incorporation into the DNA of the cells. BrdU incorporation into DNA of untreated or F16 treated (3 μM/30-36 hr) EpH-EV and EpH-A6 cells was assessed by FACS as follows. After F16 or mock treatment, the cells were pulsed with BrdU (20 μM) for 1 hour and then fixed in 70% ethanol at −20° C. overnight. Next morning cells were washed twice with 1×PBS and the DNA was denatured by incubation of the cells in 2N HCl/0.5% Triton X-100. The cells were then washed twice in 0.1M Na2B2O7, and once in PBS. The cells were resuspended in PBS, incubated with 20 μL of anti-BrdU/FITC(Becton Dickinson) for 1 hour and subsequently washed with 1×PBS and resuspended in PBS. RNA was digested with RNaseA (1 μL of 10 mg/mL stock) at 37° C. for 30 minutes. Finally, the cells were diluted with 1 mL of 5 μg/mL propidium iodide/PBS and incubated on ice for 15 minutes. The labeled cells were analyzed using the FACSCalibur (Becton Dickinson).
(§2) The effect of F16 (3 μM) on BrdU incorporation into DNA of various Neu-induced, Ras-induced and Myc-induced tumor cells lines was examined using the same technique. The results, which are shown in Table 3, indicate that, except for 16MB9a, a myc tumor cell line that is not affected by F16, the other cell lines, all of which are sensitive to F16 show, as expected, a decrease in the percentage of cells in the S phase and an increase in the percentage of cells in G1 after 30 hr of incubation in medium containing F16 (3 μM). In some cases, an increase in the amount of cells in G2 phase was observed. This may reflect the heterogeneity of the tumor cells, some of which may have acquired defects in various cell cycle regulators as secondary events.

[3] = system: Myc (16MB9a, a myc tumor cell line); test: cell cycle phases by BrdU incorporation / FACS; format: cell-based, mouse; settings: Myc tumor cell line (16MB9a); F16 3 μM, 30 hr
Experimental: as §1, §2

[4] = system: NAF; test: cell cycle phases by BrdU incorporation / FACS; format: cell-based, mouse; settings: F16 3 μM, 30 hr
Experimental: as §1, §2

[5] = system: NF980; test: cell cycle phases by BrdU incorporation / FACS; format: cell-based, mouse; settings: F16 3 μM, 30 hr
Experimental: as §1, §2

[6] = system: SH1.1; test: cell cycle phases by BrdU incorporation / FACS; format: cell-based, mouse; settings: F16 3 μM, 30 hr
Experimental: as §1, §2

[7] = system: n-Neu; test: cell cycle phases by BrdU incorporation / FACS; format: cell-based, mouse; settings: F16 3 μM, 30 hr
Experimental: as §1, §2

[8] = system: EpH-A6 cells; test: tumor growth of EpH-A6 cells injected subcutaneously in nude mice; format: in vivo, mouse; set-up: Tumor weight, right flank / Tumor weight, left flank: unit not given here; settings: for Tumor weight, left flank / Tumor weight, right flank: individual nude mice, F16 20 mg/kg intraperitoneally twice a day, 20 mg/kg
Experimental: Twenty nude mice of 8-10 weeks of age were injected subcutaneously with 10^6 EpH-A6 cells in the left and right flanks. Three days after the cell injection, a 20 mg/kg dose of F16 (40% DMSO/60% PBS) was injected intraperitoneally twice a day to a group of 10 mice, and an equivalent dose of vehicle to the remaining 10 mice (placebo mice). After 10 days of treatment, tumors were removed from all mice and weighted. Tumor tissue was used for FACS analysis, pathology, and some were stored at −70° C. until further processing.

[9] = system: kidney, heart and liver samples; test: pathology examination of kidney, liver and heart; format: in vivo, mouse; settings: four F16 treated and four placebo mice
Excerpt: All the tumors from the twenty mice as well as kidney, liver and heart samples from four placebo and four F16 treated mice were sent for pathology examination. […] Necrosis probably results from the lack of sufficient blood supply to these fast growing tumors.

[10] = system: EpH4-EV cells; test: uptake/retention of F16 by fluorescence microscopy; format: cell-based, mouse; settings: 3 μM F16, 24 hours
Experimental: (§3) The following cell lines were used in this Example: EpH4-A6 (Neu^T); EpH4-EV; Neu-initiated mouse tumor cell lines NF980, NAF and nNeu; Ras-initated tumor cell lines SH1.1 and AC816; a Myc-initiated tumor cell line 16MB9a; and normal mammary epethileal cells HC11, NuMg and EpH4. The cells were grown on 60 mm plates and incubated with medium alone or medium containing 3 μM F16 for 24 hours at 37° C. The fluorescence signal of F16 was visualized under inverted microscope Axiovert (Zeiss) using a standard fluorescein filter set. Cells were photographed using a digital camera D1 (Nikon).

[11] = system: ras- and neu-initiated tumor cell lines; test: uptake/retention of F16 by fluorescence microscopy; format: cell-based, mouse; settings: 3 μM F16, 24 hours
Experimental: as §3

[12] = system: EpH4-EV and EpH4-A6 cells; test: superoxide levels by dihydroethidium flow cytometry; format: cell-based, mouse; settings: 3 μM F16, FIG. 11
Excerpt: Besides ATP synthesis, the mitochondria plays different roles in cell physiology, among them control of the redox state of cells. Changes in the level of superoxide anion as an indicator of alterations in reactive oxygen intermediates generation by mitochondria of cells treated with F16 was examined by flow cytometry. Changes in the levels of intracellular oxidants were investigated using the fluorescent probe dihydroethidium (DHE) (Molecular Probes). Superoxide anion can oxidate DHE to ethidium bromide (EtBr) which binds to DNA. […] EpH4-EV and EpH4-A6 cells were grown in the absence or in the presence of 3 μM F16 for 15, 24, 48 and 72 hr. cells were resuspended and diluted to 10^6 cells/mL. DHE was added to the cell suspension to a final 2 μM in each case. Cells were incubated at 37° C. for 15 min and immediately analysed using flow cytometry.

## C[n+]1ccc(/C=C/c2c[nH]c3ccccc23)cc1.[I-] [F16]
[1]
  F16 response: +
[2]
  With F16 % G1: 96.8% and 95.1%
  With F16 % G2: 2.7% and 2.8%
  With F16 % S: 0.1% and 0.2%
[3]
  With F16 % G1: 82.7% and 83.8%
  With F16 % G2: 1.5%
  With F16 % S: 12.8% and 12.7%
[4]
  With F16 % G1: 86.8%
  With F16 % G2: 3.6%
  With F16 % S: 4.7%
[5]
  With F16 % G1: 68.6% and 69.6%
  With F16 % G2: 12.4% and 8.9%
  With F16 % S: 17.3% and 17.0%
[6]
  With F16 % G1: 81.3% and 79.7%
  With F16 % G2: 10.4% and 13.2%
  With F16 % S: 7.1%
[7]
  With F16 % G1: 64.5% and 61.5%
  With F16 % G2: 15.4% and 17.8%
  With F16 % S: 18.2% and 19.6%
[8]; Experiment #1, 10 days
  Tumor weight, left flank: 0.1131 and 0.0293 and 0.1365 and 0.021 and 0.1463 and 0.1127 and 0.1186 and 0.097 and 0.1163 and 0.1174
  Tumor weight, right flank: 0.214 and 0.0666 and 0.1984 and 0.1597 and 0.1645 and 0.1127 and 0.2314 and 0.2412 and 0.2408 and 0.2174
[8]; Experiment #2, 10 days
  Tumor weight, left flank: 0.054 and 0.4294 and 0.3368 and 0.041 and 0.2375 and 0.2087 and 0.1809 and 0.0454 and 0.1417 and 0
  Tumor weight, right flank: 0.022 and 0.632 and 0.2078 and 0.1798 and 0.1063 and 0.2621 and 0.1315 and 0.1971 and 0.3451 and 0
[8]; F16 20 mg/kg twice a day, 10 days
  difference in tumor size relative to the control mice: 2-3 fold
[8]; at least some F16 treated tumors compared to untreated tumors
  cells undergoing mitosis in tumors (pathology): decrease in number of cells undergoing mitosis
[9]
  pathology of kidney, heart and liver samples versus placebo: no major differences
[10]
  uptake/retention of F16 (fluorescence): do not show any uptake/retention
[11]
  uptake/retention of F16 (fluorescence): very intense fluorescent green punctuated staining
[12]
  superoxide level (ethidium/DNA fluorescence): increase in the ethidium/DNA fluorescence
